# In patent publication US8263606B2 (Xenon Pharmaceuticals Inc., priority 2008, dated 2012):
# Tests used:
# CYP3A4 = CYP3A4 (Homo sapiens, UniProt P08684); assay: Cytochrome P450 (CYP450) Inhibition Assay, CYP3A4 (Vivid fluorescence, BOMCC substrate); details: human, P450 Baculosomes (recombinant CYP3A4), probe BOMCC (Vivid substrate)
# sodium channel = assay: Guanidine influx assay (14C-guanidine radiotracer flux, in vitro); type: cell-based, human or rat; details: guanidine influx assay using a known cell line that expresses a sodium channel
# Outline: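 IC50 derives from a four-parameter logistic fit of 14C-guanidine uptake, test agent serially half-diluted around a 1 μM midpoint. Flux was driven by aconitine in low-sodium HEPES/choline saline at ambient temperature, using endogenous or recombinant human or rat sodium-channel cell lines plated ~100,000/well for 20–24 h.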
# Sequence of CYP3A4 (P08684 whole entry): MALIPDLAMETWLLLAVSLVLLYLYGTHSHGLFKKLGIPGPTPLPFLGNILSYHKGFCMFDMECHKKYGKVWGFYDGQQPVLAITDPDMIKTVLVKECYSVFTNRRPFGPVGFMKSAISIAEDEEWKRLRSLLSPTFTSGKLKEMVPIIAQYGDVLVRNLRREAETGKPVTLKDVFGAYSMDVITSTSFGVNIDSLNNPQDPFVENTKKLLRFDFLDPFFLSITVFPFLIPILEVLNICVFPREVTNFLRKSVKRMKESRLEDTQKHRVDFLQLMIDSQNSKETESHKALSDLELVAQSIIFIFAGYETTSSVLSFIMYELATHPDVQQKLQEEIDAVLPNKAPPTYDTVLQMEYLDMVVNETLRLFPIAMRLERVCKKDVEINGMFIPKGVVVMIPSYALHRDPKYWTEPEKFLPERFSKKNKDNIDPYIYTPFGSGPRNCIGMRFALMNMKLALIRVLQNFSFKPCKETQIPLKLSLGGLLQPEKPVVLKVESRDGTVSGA
SMILES,inhibition at 10 µM (CYP3A4) [%],melting point [°C],IC50 (sodium channel; activity level class) [µM],IC50 (sodium channel) [µM]
N#CCN1C(=O)C2(COc3cc4c(cc32)OCO4)c2c(Cl)cccc21 (stereo not drawn) [Example 4.84],< 50,122 to 123,0.1 to 1,
"O=C1N(C(c2ccccc2)c2ccccc2)c2ccccc2C12COc1cc3c(cc12)OCCO3 (stereo not drawn) [Example 2.11, 1′-(diphenylmethyl)-2,3-dihydrospiro[furo[2,3-g][1,4]benzodioxine-8,3′-indol]-2′(1′H)-one]",< 50,183 to 185,1 to 10,
"Cc1cc2c(cc1C)C1(CO2)C(=O)N(C(c2ccccc2)c2ccccc2)c2ccccc21 (stereo not drawn) [Example 2.3, 1′-(diphenylmethyl)-5,6-dimethylspiro[1-benzofuran-3,3′-indol]-2′(1′H)-one]",< 50,193 to 195,1 to 10,
"O=C1Nc2ccccc2C12COc1c2ccc2c1OCCO2 (stereo not drawn) [Example 3.48, 2,3-dihydrospiro[furo[2,3-f][1,4]benzodioxine-7,3′-indol]-2′(1′H)-one]",< 50,> 250,1 to 10,
"O=C1N(C[C@H]2COCCO2)c2ccccc2C12COc1cc3c(cc12)OCO3 (stereo partly drawn) [Example 8, 1′-[(2S)-1,4-dioxan-2-ylmethyl]spiro[furo[2,3-f][1,3]benzodioxole-7,3′-indol]-2′(1′H)-one]",> 50,147 to 149,0.001 to 0.1,
"COc1cc2c(cc1C)C1(CO2)C(=O)N(C[C@H]2CCCO2)c2ccccc21 (stereo partly drawn) [Example 4.61, 6-methoxy-5-methyl-1′-[(2R)-tetrahydrofuran-2-ylmethyl]spiro[1-benzofuran-3,3′-indol]-2′(1′H)-one]",< 50,151 to 153,1 to 10,
"O=C1N(Cc2ccc3nonc3c2)c2ccccc2C12COc1cc3c(cc12)OCCO3 (stereo not drawn) [Example 4.122, 1-(2,1,3-benzoxadiazol-5-ylmethyl)-2,3-dihydrospiro[furo[2,3-g][1,4]benzodioxine-8,3′-indol]-2′(1′H)-one]",> 50,164 to 166,0.001 to 0.1,
"N#Cc1cccc2c1N(Cc1ccc(Cl)s1)C(=O)C21COc2cc3c(cc21)OCO3 (stereo not drawn) [Example 4.87, 1′-[(5-chloro-2-thienyl)methyl]-2′-oxo-1′,2′-dihydrospiro[furo[2,3-f][1,3]benzodioxole-7,3′-indole]-7′-carbonitrile]",> 50,192 to 193,0.001 to 0.1,
"CC(C)c1nc(CN2C(=O)C3(COc4cc5c(cc43)OCCO5)c3ccccc32)cs1 (stereo not drawn) [Example 4.121, 1′-{[2-(1-methylethyl)-1,3-thiazol-4-yl]methyl}-2,3-dihydrospiro[furo[2,3-g][1,4]benzodioxine-8,3′-indol]-2′(1′H)-one]",> 50,60 to 63,0.001 to 0.1,
"O=C1N(Cc2cccnc2)c2ccccc2C12COc1ccc3nonc3c12 (stereo not drawn) [Example 4.125, 1-(pyridin-3-ylmethyl)spiro[furo[3,2-e][2,1,3]benzoxadiazole-8,3′-indol]-2′(1′H)-one]",< 50,230 to 232,1 to 10,
"CC(C)c1nc(CN2C(=O)C3(COc4cc5c(cc43)OCO5)c3c(-c4ccc(N(C)C)nc4)cccc32)cs1 (stereo not drawn) [Example 4.92, 4′-[6-(dimethylamino)pyridin-3-yl]-1′-{[2-(1-methylethyl)-1,3-thiazol-4-yl]methyl}spiro[furo[2,3-f][1,3]benzodioxole-7,3′-indol]-2′(1′H)-one]",> 50,164 to 165,0.1 to 1,
"O=C1Nc2ccccc2C12COc1cc3c(cc12)OCCCO3 (stereo not drawn) [Example 3.11, 3,4-dihydro-2H-spiro[furo[2,3-h][1,5]benzodioxepine-9,3′-indol]-2′(1′H)-one]",< 50,235 to 236,1 to 10,

# Continued, values first:
inhibition at 10 µM (CYP3A4) [%],melting point [°C],IC50 (sodium channel; activity level class) [µM],IC50 (sodium channel) [µM],SMILES
< 50,191 to 193,0.001 to 0.1,,O=C1N(Cc2ccccc2C(F)F)c2ccccc2C12COc1cc3c(cc12)OCCO3 (stereo not drawn) [Example 8.17]
> 50,205 to 206,,0.001 to 0.1,"COc1ccc(-c2cccc3c2C2(COc4cc5c(cc42)OCCO5)C(=O)N3Cc2ccccn2)cc1 (stereo not drawn) [Example 16.60, 4′-(4-methoxyphenyl)-1′-(pyridin-2-ylmethyl)-3,7-dihydro-2H-spiro[benzofuro[5,6-b][1,4]dioxine-8,3′-indolin]-2′-one]"
> 50,198 to 199,1 to 10,,"Cn1c(=O)oc2cc3c(cc21)OCC31C(=O)N(Cc2ccc(C(F)(F)F)o2)c2ccccc21 (stereo not drawn) [Example 5.8, 3-methyl-1′-{[5-(trifluoromethyl)furan-2-yl]methyl}spiro[furo[2,3-f][1,3]benzoxazole-7,3′-indole]-2,2′(1′H,3H)-dione]"
> 50,138 to 140,,0.001 to 0.1,"O=C1N(Cc2noc(C(F)(F)F)n2)c2cccc(Cl)c2C12COc1cc3c(cc12)OCO3 (stereo not drawn) [Example 11.19, 4′-chloro-1′-{[5-(trifluoromethyl)-1,2,4-oxadiazol-3-yl]methyl}spiro[furo[2,3-f][1,3]benzodioxole-7,3′-indol]-2′(1′H)-one]"
> 50,102 to 112,,0.1 to 1,"CN1CCOC(CN2C(=O)C3(COc4cc5c(cc43)OCCO5)c3ccccc32)C1 (stereo not drawn) [Example 11.104, 1-[(4-methylmorpholin-2-yl)methyl]-2,3-dihydrospiro[furo[2,3-g][1,4]benzodioxine-8,3′-indol]-2′(1′H)-one]"
> 50,177 to 178,1 to 10,,"Cc1nc2cc3c(cc2s1)C1(CO3)C(=O)N(Cc2ncc(Cl)n2C)c2ccccc21 (stereo not drawn) [Example 9.22, 1′-[(5-chloro-1-methyl-1H-imidazol-2-yl)methyl]-2-methylspiro[furo[2,3-f][1,3]benzothiazole-7,3′-indol]-2′(1′H)-one]"
> 50,167 to 169,0.1 to 1,,"O=C1N(C[C@H]2CCCO2)c2ccc(F)cc2C12COc1cc3c(cc12)CCO3 (stereo partly drawn) [Example 9.18, 5′-fluoro-1′-[(2R)-tetrahydrofuran-2-ylmethyl]-5,6-dihydrospiro[benzo[1,2-b:5,4-b′]difuran-3,3′-indol]-2′(1′H)-one]"
> 50,> 230,,1 to 10,"Cc1cccc(NC(=O)c2ccccc2CN2C(=O)C3(COc4cc5c(cc43)CCO5)c3ccccc32)c1C (stereo not drawn) [Example 12.21, N-(2,3-dimethylphenyl)-2-[(2′-oxo-5,6-dihydrospiro[benzo[1,2-b:5,4-b′]difuran-3,3′-indol]-1′(2′H)-yl)methyl]benzamide]"
> 50,72 to 73,,0.1 to 1,"COCCNC(=O)c1cccc(CN2C(=O)C3(COc4cc5c(cc43)CCO5)c3ccccc32)c1 (stereo not drawn) [Example 12.1, N-(2-methoxyethyl)-3-[(2′-oxo-5,6-dihydrospiro[benzo[1,2-b:5,4-b′]difuran-3,3′-indol]-1′(2′H)-yl)methyl]benzamide]"
< 50,174 to 175,,0.001 to 0.1,"Cc1nc(-c2ccc(CN3C(=O)C4(COc5cc6c(cc54)OCCO6)c4ccccc43)cc2)no1 (stereo not drawn) [Example 11.84, 1′-[4-(5-methyl-1,2,4-oxadiazol-3-yl)benzyl]-2,3-dihydrospiro[furo[2,3-g][1,4]benzodioxine-8,3′-indol]-2′(1′H)-one]"
> 50,158 to 160,,1 to 10,"COCCOCCN1C(=O)C2(COc3cc4c(cc32)OCCO4)c2c(OC)cc(OC)cc21 (stereo not drawn) [Example 9.73, 4′,6′-dimethoxy-1′-[2-(2-methoxyethoxy)ethyl]-2,3-dihydrospiro[furo[2,3-g][1,4]benzodioxine-8,3′-indol]-2′(1′H)-one]"
> 50,192 to 194,0.1 to 1,,"Cc1noc2cc3c(cc12)C1(CO3)C(=O)N(Cc2ccccc2C(F)(F)F)c2ccccc21 (stereo not drawn) [Example 9.41, 3-methyl-1′-[2-(trifluoromethyl)benzyl]spiro[furo[3,2-f][1,2]benzisoxazole-5,3′-indol]-2′(1′H)-one]"
< 50,245 to 251,,0.1 to 1,"O=C(Nc1ccccc1F)c1ccc(CN2C(=O)C3(COc4cc5c(cc43)OCCO5)c3ccccc32)cc1 (stereo not drawn) [Example 12.65, N-(2-fluorophenyl)-4-[(2′-oxo-2,3-dihydrospiro[furo[2,3-g][1,4]benzodioxine-8,3′-indol]-1′(2′H)-yl)methyl]benzamide]"
< 50,249 to 250,1 to 10,,"Cc1nc2cc3c(cc2s1)C1(CO3)C(=O)N(Cc2ccccn2)c2ccccc21 (stereo not drawn) [Example 9.21, 2-methyl-1′-(pyridin-2-ylmethyl)spiro[furo[2,3-f][1,3]benzothiazole-7,3′-indol]-2′(1′H)-one]"
> 50,65 to 70,,0.1 to 1,"O=C(NCCCN1C(=O)C2(COc3cc4c(cc32)CCO4)c2ccccc21)c1ccccc1OC(F)(F)F (stereo not drawn) [Example 13.11, N-[3-(2′-oxo-5,6-dihydrospiro[benzo[1,2-b:5,4-b′]difuran-3,3′-indol]-1′(2′H)-yl)propyl]-2-(trifluoromethoxy)benzamide]"
< 50,143 to 144,0.001 to 0.1,,"O=C1N(Cc2cnccn2)c2ccccc2C12COc1cc3c(cc12)CCO3 (stereo not drawn) [Example 9.7, 1′-(pyrazin-2-ylmethyl)-5,6-dihydrospiro[benzo[1,2-b:5,4-b′]difuran-3,3′-indol]-2′(1′H)-one]"
